Measurements reported in patent US11541065B2, “Compositions and methods for treating brain injury” (UNM RAINFOREST INNOVATIONS, priority 2018, dated 2023).

Key:
Assay type in all cases: cell-based
PGE2 = PGE2 release from rat neuronal cultures (enzyme immunoassay / ELISA of culture media); settings: for effect on homocysteine-induced PGE2 release: rat neurons, L-homocysteine 50 μM four hours, with DL-AP5 200 μM, MK801 10 μM, NVP-AAM077 30 nM, Ro 25-6981 1 μM, PD98059 15 μM, SB203580 5 μM, Bengamide B 500 nM or CAY10404 100 nM
Protocol: (§1) Neuron cultures were treated with or without L-homocysteine in the presence or absence of pharmacological inhibitors for the time period specified in each experiment. The medium was collected from each experimental plate and centrifuged at 1000 rpm for five minutes to remove cellular debris. Equal amounts (100 μl) of the supernatant from each sample were used to determine the amount of PGE2 using the PGE2 enzyme immunoassay kit according to the manufacturer's instructions. For measurement of cPLA2 activity, the neuronal cells from the above treated conditions were harvested in ice-cold Tris-buffered saline (pH7.4) containing sodium pyrophosphate as phosphatase inhibitor, sonicated three times with five-second bursts and two minutes on ice between intervals. The lysed cell suspensions were centrifuged at 10,000 rpm for 10 minutes and the supernatant removed. Equal amounts of protein from the supernatant (assessed using BCA protein estimation kit) were estimated for activity of cPLA2 using cPLA2 activity assay kit according to the manufacturer's protocol.
For measurement of PGE2 levels and MCP-1 levels released from neurons, culture medium was collected from each experimental plate and centrifuged at 1000 rpm for five minutes to remove cellular debris. Equal volume (100 μl) of the supernatant from each sample was used to determine PGE2 level using the PGE2 ELISA kit according to the manufacturer's instructions.

cPLA2 = cPLA2 activity in rat neuronal lysates (enzymatic assay); settings: for effect on homocysteine-mediated increase in cPLA2 activity: rat neurons, L-homocysteine 50 μM four hours, with MK801 10 μM, NVP-AAM077 30 nM, Ro 25-6981 1 μM, PD98059 15 μM or SB203580 5 μM
Protocol: as §1
For measurement of cPLA2 activity and MCP-1 levels in cell lysates, neuronal lysates were prepared by harvesting neurons in ice-cold Tris-buffered saline (pH 7.4) containing phosphatase inhibitor, sonicated three times in five-second bursts and placed on ice (two minutes) between each burst of sonication. The lysed cell suspensions were centrifuged at 10,000 rpm (10 minutes) and the supernatant was collected in another tube. Equal amounts of protein from the supernatant were processed for cPLA2 activity assay according to the manufacturer's protocol. Equal protein from the lysates were also used to estimate MCP-1 levels using an MCP-1 ELISA kit.

ERK MAPK = ERK MAPK phosphorylation in rat cortical neuron cultures (immunoblot)
From the text: Primary cortical neuronal cultures were established from embryos obtained from pregnant Sprague Dawley female rats (16-17 day gestation) as previously described (Podder and Paul, 2009, J Neurochem 110:1095-1106; Poddar and Paul, 2013, J Neurochem 124: 558-570). Primary cortical neuronal cultures were also developed from pregnant wildtype or GluN2A-knockout mice (15-16 day gestation) using similar protocols. The cells were maintained in culture for 12-14 days prior to treatment with homocysteine. L-homocysteine (200 mM stock) was prepared by alkali hydrolysis of L-homocysteine thiolactone hydrochloride followed by neutralization with 2N HCL and maintained in 0.02 mM N-Tris(hydroxymethyl)methyl-2-aminoethanesulfonicd acid (TES) buffer pH 7.4 (Poddar et al., 2001, Circulation 103:2717-2723). For receptor stimulation neurons were treated with freshly prepared 50 μM of L-homocysteine in Hank's balanced salt solution (Podder and Paul, 2009, J Neurochem 110:1095-1106; Poddar and Paul, 2013, J Neurochem 124: 558-570) containing 50 μM of glycine (Lipton et al., 1997, Proc Natl Acad Sci USA 94:5923-5928). In a subset of culture plates, pharmacological inhibitors (NVP-AAM007) were added […] prior to homocysteine addition and maintained during homocysteine treatment. Cells were processed for immunoblotting or Hoechst DNA staining.
Equal protein from total cell lysates obtained from rat and mice neuronal cultures were resolved in 7.5% SDS-PAGE, and subjected to immunoblotting procedure as described earlier (Podder and Paul, 2009, J Neurochem 110:1095-1106). Blots were analyzed with antibodies as described in each experiment. All primary antibodies (anti-pERK, anti-ERK) and secondary-horse radish peroxidase conjugated antibody concentrations were used according to recommendations provided by the manufacturer. Signals from immune complexes in the blots were developed using West Pico supersignal chemiluminescence reagents and then captured on X-ray films. Densitometric analysis of the images was performed using the Image J software.
Embryos obtained from pregnant Sprague Dawley rats (16-17-day gestation) or wild type (WT) and GluN2A KO mice (15-16-day gestation) were used to establish primary cortical neuronal cultures as previously described (Poddar and Paul, 2009, J Neurochem 110:1095-1106; Poddar and Paul, 2013, J Neurochem 124:558-570; Poddar et al., 2017, J Neurochem 142:560-573). Neurons were grown on either (a) 35-mm culture dishes (MatTek Corp., Ashland, Mass.) coated overnight with poly-D-lysine (50 μg/ml) and laminin (10 μg/ml) for Ca^2+ imaging studies, (b) poly-D-lysine-coated 60 mm dishes (Corning BIOCOAT, Corning Inc., Corning, N.Y.) for biochemical studies, or (c) poly-D-lysine-coated 4-well culture slides (Corning BIOCOAT, Corning Inc., Corning, N.Y.) for cell death assay. Neurons were maintained in culture for 12-13 days before experiment. The cells were treated with freshly prepared L-homocysteine (50 μM) in Hank's balanced salt solution containing 50 μM of glycine (Lipton et al., 1997, Proceedings of the National Academy of Sciences of the United States of America 94:5923-5928; Poddar and Paul, 2009, J Neurochem 110:1095-1106; Poddar and Paul, 2013, J Neurochem 124:558-570; Poddar et al., 2017, J Neurochem 142:560-573) for the specified time periods. In a parallel series of experiments, cells were treated with glutamate (50 μM) for the specified time periods. Cells were then processed for live cell imaging, immunoblotting or cell death assay. In some experiments EGTA, DL-AP5, NVP-AAM077, Ro 25-6981 or PD98059 was added 15 minutes prior to L-homocysteine or glutamate treatment.
Rat and mice neuron cultures were harvested in SDS sample buffer (Laemmli, 1970, Nature 227:680-685). […]

[1] = rat cortical neurons, L-homocysteine 50 μM four hours, in presence of NVP-AAM077 (30 nM) or Ro 256981 (1 μM)

C[C@@H](CN1CCC(Cc2ccccc2)CC1)[C@@H](O)c1ccc(O)cc1 [Ro 25-6981]
effect on homocysteine-induced PGE2 release (PGE2): fails to alter homocysteine-induced increase in PGE2 level
effect on homocysteine-mediated increase in cPLA2 activity (cPLA2): fails to attenuate homocysteine-mediated increase in cPLA2 activity
effect on homocysteine-induced ERK MAPK phosphorylation (ERK MAPK; [1]): has no effect

C[C@H](NC(c1cccc2[nH]c(=O)c(=O)[nH]c12)P(=O)(O)O)c1ccc(Br)cc1 (stereo partly drawn) [NVP-AAM077, ({[(1S)-1-(4-bromophenyl)ethyl]amino}-(2,3-dioxo-1,4-dihydroquinoxalin-5-yl)methyl)phosphonic acid]
effect on homocysteine-induced PGE2 release (PGE2): significantly reduced
effect on homocysteine-mediated increase in cPLA2 activity (cPLA2): inhibits homocysteine-mediated increase in cPLA2 activity
effect on homocysteine-induced ERK MAPK phosphorylation (ERK MAPK; [1]): blocks homocysteine-induced ERK MAPK phosphorylation
effect on homocysteine-induced ERK MAPK phosphorylation (ERK MAPK; rat neurons, L-homocysteine 50 μM for 30 minutes or 60 minutes, with DL-AP5 200 μM or NVP-AAM077 30 nM): attenuates homocysteine-induced ERK MAPK phosphorylation
effect on glutamate-induced transient increase in ERK MAPK phosphorylation (ERK MAPK; rat neurons, glutamate 50 μM five min, with DL-AP5 200 μM or NVP-AAM077 30 nM): fails to ameliorate

N[C@@H](CCS)C(=O)O [L-homocysteine]
PGE2 levels released into the medium (PGE2; cortical neurons, L-homocysteine 50 μM, time course, alone): significant increase in PGE2 levels within two hours
cPLA2 activity (cPLA2; primary cortical neurons, L-homocysteine 50 μM, 0-6 hours, alone): significantly increases cPLA2 activity with time
ERK MAPK phosphorylation (ERK MAPK; rat cortical neurons, L-homocysteine 50 μM, four hours, alone): significant increase in ERK MAPK phosphorylation
